The text below walks through data of patent US11932634B2 (Gilead Sciences, Inc., priority 2021, dated 2024).

For orientation: IC50 means the concentration at which inhibition is half-maximal. Low values mean greater potency in that assay, high ones weaker potency in that assay. The term EC50 denotes the midpoint of the concentration-response curve.

In one assay the target is T1, human DGKα (Homo sapiens, UniProt P23743).
T1 construct: purchased Carna Biosciences'; inferred from the same paragraph's 'obtained from Carna Biosciences')
T1 sequence (P23743 whole entry): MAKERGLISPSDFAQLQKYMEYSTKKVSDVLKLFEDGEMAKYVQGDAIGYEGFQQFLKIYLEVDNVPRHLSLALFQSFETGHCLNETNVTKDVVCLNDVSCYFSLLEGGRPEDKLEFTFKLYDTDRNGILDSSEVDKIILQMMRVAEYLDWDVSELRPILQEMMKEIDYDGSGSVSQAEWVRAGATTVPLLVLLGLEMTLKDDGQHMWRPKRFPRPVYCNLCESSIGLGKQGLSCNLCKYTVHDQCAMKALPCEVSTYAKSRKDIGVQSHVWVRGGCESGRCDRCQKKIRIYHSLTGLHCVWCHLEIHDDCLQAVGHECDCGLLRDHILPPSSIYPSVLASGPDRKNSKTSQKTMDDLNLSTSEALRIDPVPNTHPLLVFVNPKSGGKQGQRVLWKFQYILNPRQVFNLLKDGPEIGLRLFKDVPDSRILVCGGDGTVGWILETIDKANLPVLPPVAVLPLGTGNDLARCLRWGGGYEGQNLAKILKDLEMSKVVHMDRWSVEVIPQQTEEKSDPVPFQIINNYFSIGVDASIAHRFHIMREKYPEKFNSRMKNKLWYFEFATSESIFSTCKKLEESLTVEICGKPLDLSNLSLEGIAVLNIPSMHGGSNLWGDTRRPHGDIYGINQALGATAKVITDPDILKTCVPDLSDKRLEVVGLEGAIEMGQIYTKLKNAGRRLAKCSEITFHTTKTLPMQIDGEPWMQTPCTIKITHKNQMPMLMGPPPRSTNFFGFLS
Nature of the assay: DGKα Biochemical Activity Assay (ADP-Glo).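 Also: recombinant enzyme converting diacylglycerol in lipid micelles with ATP, ADP formed detected by luminescence, IC50 from a four-parameter nonlinear fit, geometric mean across experiments.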

Assay [1] has as its system Jurkat NFκB-luciferase cells. Nature of the assay: Jurkat NFκB-Luciferase Assay.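 Also: bioluminescence read-out normalized to DMSO basal activation and to maximum enhancement at 1 µM compound, rising signal indicating stronger T-cell activation through DGKα inhibition.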 In kind it is cell-based. As to conditions: Homo sapiens; Jurkat NFκB-luciferase cells activated with anti-CD3 antibody (OKT3), 2.5 hrs at 37° C., One-Glo Ex; geometric mean; read-out: DGK NFKb Luciferase EC50.
Experimental: The activity of compounds was tested in a cell based NFκB reporter assay. Jurkat cells that are stably expressing a luciferase reporter construct under the transcriptional control of a NFκB reporter element were activated with an anti-CD3 antibody and luciferase levels were measured with a bioluminescence readout.
The day after, the excess antibody was washed out five times with 100 ul/well of assay medium (RPMI supplemented with 10% fetal bovine serum) using a Biotek EL406 instrument and leaving 20 µl of residual volume in each well. Jurkat NFκB-luciferase cells (Promega #) were harvested and diluted to 1 million cells/ml in assay medium. Sixty nanoliters of test compound dissolved in DMSO at various concentrations were dispensed into 384-well v-bottom polypropylene plates (Greiner) using a Labcyte Echo instrument. Thirty microliters of medium containing the Jurkat NFκB-luciferase cells were then dispensed using a Biotek MicroFlo instrument in each well of the compound-containing plate. The medium/cell/compound mixture was mixed with a Bravo instrument and 20 ul/well of the mixture was transferred to the anti-CD3-coated plate. The assay mixture was then incubated for 2.5 hrs at 37° C. followed by equilibration at 25° C. for 30 min. Forty microliters of One-Glo Ex (Promega) was then added to the assay mixture and luciferase activity was read on a Envision plate reader 7 minutes later.
Bioluminescence data were normalized based on maximum enhancement (1 micromolar of compound) and on basal activation (DMSO) controls. Least squares curve fittings were performed using a four-parameter variable slope nonlinear regression model. […] EC50 values from multiple experiments were averaged by geometric mean and the standard deviation was calculated.

As for `CC(C)(O)C#Cc1cccc2c1COCCN2c1nc(=O)[nH]c2c(F)ccc(F)c12` [Example 155], the IC50 on human DGKα amounted to 16.2 nM. Moreover, the EC50 in assay [1] worked out at 53.8 nM.

On to `[2H]C([2H])([2H])n1c(=O)nc(N2CCCc3c2ccnc3C#CC2(C(F)(F)F)CC2)c2c(F)c(F)ccc21` [Example 141, 5,6-difluoro-1-(trideuteriomethyl)-4-[5-[2-[1-(trifluoromethyl)cyclopropyl]ethynyl]-3,4-dihydro-2H-1,6-naphthyridin-1-yl]quinazolin-2-one], for which half-maximal inhibition on human DGKα (IC50) was put at 6.28 nM. In addition, in assay [1], the concentration for a half-maximal effect (EC50) worked out at 2.37 nM.

With `O=c1nc(N2CCCCc3c(C#CC4(C(F)(F)F)CC4)cccc32)c2c(F)cccc2[nH]1` [Example 156, 5-fluoro-4-(6-((1-(trifluoromethyl)cyclopropyl)ethynyl)-2,3,4,5-tetrahydro-1H-benzo[b]azepin-1-yl)quinazolin-2(1H)-one], 22.6 nM corresponded to half-maximal inhibition at human DGKα (IC50). In assay [1], the concentration giving a half-maximal response (EC50) stood at 0.308 nM.

With `[2H]C([2H])([2H])n1c(=O)nc(N2CCOCc3c(C#CC(C)(C)NC(=O)C(C)(C)C(F)F)cccc32)c2c(F)cccc21` [Example 179, 3,3-difluoro-N-(4-(1-(5-fluoro-1-(methyl-d3)-2-oxo-1,2-dihydroquinazolin-4-yl)-1,2,3,5-tetrahydrobenzo[e][1,4]oxazepin-6-yl)-2-methylbut-3-yn-2-yl)-2,2-dimethylpropanamide], the 50% inhibitory concentration (IC50) at human DGKα was determined as 3.48 nM. Besides, the EC50 in assay [1] is 15.1 nM.

Turning to `CC(F)(F)C1(C#Cc2cccc3c2COCCN3c2nc(=O)[nH]c3c(F)ccc(F)c23)CC1` [Example 147], the IC50 on human DGKα was 51.9 nM. In addition, the EC50 in assay [1] stood at 2.84 nM.

As to `[2H]C([2H])([2H])n1c(=O)nc(N2CCOCc3c(C#CC45CC(CN4C)C5)cccc32)c2c(F)cccc21` [Example 174, 5-fluoro-4-[6-[2-(2-methyl-2-azabicyclo[2.1.1]hexan-1-yl)ethynyl]-3,5-dihydro-2H-4,1-benzoxazepin-1-yl]-1-(trideuteriomethyl)quinazolin-2-one], the IC50 on human DGKα turned out to be 66.4 nM. The EC50 in assay [1] amounted to 32.9 nM.

`CC1(C#Cc2cncc3c2CCCCN3c2nc(=O)[nH]c3ccc(F)c(F)c23)CC1` [Example 150, 5,6-difluoro-4-(6-((1-methylcyclopropyl)ethynyl)-2,3,4,5-tetrahydro-1H-pyrido[3,4-b]azepin-1-yl)quinazolin-2(1H)-one] registered a 50% inhibitory concentration (IC50) on human DGKα of 11.2 nM. For the same compound, the 50% effective concentration (EC50) in assay [1] came out at 0.826 nM.

Take `[2H]C([2H])([2H])n1c(=O)nc(N2CCCc3c(C#CC(C)(C)O)cccc32)c2c(F)cccc21` [Example 55, 5-fluoro-4-[5-(3-hydroxy-3-methyl-but-1-ynyl)-3,4-dihydro-2H-quinolin-1-yl]-1-(trideuteriomethyl)quinazolin-2-one]: the IC50 on human DGKα stood at 5.82 nM. Besides, in assay [1], the half-maximal effective concentration (EC50) was 4.68 nM.

As to `O=c1nc(N(CC(F)F)c2cccc(C#CC3(C(F)(F)F)CC3)n2)c2cc(F)ccc2[nH]1` [Example 46, 4-((2,2-difluoroethyl)(6-((1-(trifluoromethyl)cyclopropyl)ethynyl)pyridin-2-yl)amino)-6-fluoroquinazolin-2(1H)-one], the IC50 against human DGKα turned out to be 86.9 nM. Also, the half-maximal effective concentration (EC50) in assay [1] was determined as 15.3 nM.

In the case of `CC(C)(C#Cc1cccc(N(CC(F)F)c2nc(=O)[nH]c3ccc(F)cc23)c1F)C(F)(F)F` [Example 49, 4-[N-(2,2-difluoroethyl)-2-fluoro-3-(4,4,4-trifluoro-3,3-dimethyl-but-1-ynyl)anilino]-6-fluoro-1H-quinazolin-2-one], at human DGKα, the half-inhibitory concentration (IC50) is 296 nM. The 50% effective concentration (EC50) in assay [1] was determined as 5.3 nM.

`O=c1nc(N(CC(F)F)c2cccc(C#CC3(C(F)F)CC3)c2F)c2c(F)cccc2[nH]1` [Example 62, 4-[N-(2,2-difluoroethyl)-3-[2-[1-(difluoromethyl)cyclopropyl]ethynyl]-2-fluoro-anilino]-5-fluoro-1H-quinazolin-2-one] came in with an IC50 against human DGKα of 28.2 nM. The EC50 in assay [1] was 1.13 nM.

At human DGKα, `O=c1nc(N(CC(F)F)c2ccnc(C#CC3(C(F)F)CC3)c2F)c2c(F)cccc2[nH]1` [Example 126, 4-[2,2-difluoroethyl-[2-[2-[1-(difluoromethyl)cyclopropyl]ethynyl]-3-fluoro-4-pyridyl]amino]-5-fluoro-1H-quinazolin-2-one] yielded a concentration for half-maximal inhibition (IC50) of 18 nM. Moreover, the half-maximal effective concentration (EC50) in assay [1] was 3.37 nM.

In turn, `[2H]C([2H])([2H])n1c(=O)nc(N2CCOCc3c(C#Cc4coc(C)n4)cccc32)c2c(F)cccc21` [Example 177, 5-fluoro-1-(methyl-d3)-4-(6-((2-methyloxazol-4-yl)ethynyl)-2,3-dihydrobenzo[e][1,4]oxazepin-1(5H)-yl)quinazolin-2(1H)-one] returned an IC50 against human DGKα of 17.5 nM. The EC50 in assay [1] is 18.8 nM.

For the compound `[2H]C([2H])([2H])n1c(=O)nc(N2CCCc3c(C#CC4(C(F)(F)F)CC4)cccc32)c2c(F)cccc21` [Example 21, 5-fluoro-1-(trideuteriomethyl)-4-[5-[2-[1-(trifluoromethyl)cyclopropyl]ethynyl]-3,4-dihydro-2H-quinolin-1-yl]quinazolin-2-one], 11.3 nM corresponded to half-maximal inhibition on human DGKα (IC50). For the same compound, in assay [1], the EC50 is 0.232 nM.

Turning to `CC(C)(O)C#Cc1cc(F)cc(N(CC(F)F)c2nc(=O)[nH]c3ccc(F)c(F)c23)c1` [Example 65, 4-[N-(2,2-difluoroethyl)-3-fluoro-5-(3-hydroxy-3-methyl-but-1-ynyl)anilino]-5,6-difluoro-1H-quinazolin-2-one], the IC50 at human DGKα worked out at 13.4 nM. In assay [1], the EC50 was 9.92 nM.

On to `CC(C)(C#Cc1nccc(N(CC(F)F)c2nc(=O)[nH]c3cccc(F)c23)c1F)C(F)(F)F` [Example 125, 4-[2,2-difluoroethyl-[3-fluoro-2-(4,4,4-trifluoro-3,3-dimethyl-but-1-ynyl)-4-pyridyl]amino]-5-fluoro-1H-quinazolin-2-one], for which it took 40.8 nM to reach half-maximal inhibition against human DGKα (IC50). In addition, in assay [1], the half-maximal effective concentration (EC50) came out at 2.18 nM.

Turning to `O=c1nc(N(CC(F)(F)F)c2cc(F)cc(C#CC3(C(F)(F)F)CC3)c2)c2ccc(Cl)cc2[nH]1` [Example 29, 7-chloro-4-[3-fluoro-N-(2,2,2-trifluoroethyl)-5-[2-[1-(trifluoromethyl)cyclopropyl]ethynyl]anilino]-1H-quinazolin-2-one], the 50% inhibitory concentration (IC50) at human DGKα was found to be 849 nM. The 50% effective concentration (EC50) in assay [1] stood at 1.88 nM.

In turn, `CN(c1cccc(-c2cnc(C3CC3)cn2)c1)c1nc(=O)n(C)c2cc(Cl)ccc12` [Example 11, 7-chloro-4-[3-(5-cyclopropylpyrazin-2-yl)-N-methyl-anilino]-1-methyl-quinazolin-2-one] yielded an IC50 against human DGKα of 4.02 nM. In addition, in assay [1], the half-maximal effective concentration (EC50) turned out to be 0.709 nM.

In turn, `[2H]C([2H])([2H])n1c(=O)nc(N(CC(F)F)c2ccnc(C#CC(C)(C)C#N)c2)c2c(F)cccc21` [Example 139, 4-[4-[2,2-difluoroethyl-[5-fluoro-2-oxo-1-(trideuteriomethyl)quinazolin-4-yl]amino]-2-pyridyl]-2,2-dimethyl-but-3-ynenitrile] showed an IC50 against human DGKα of 18.3 nM. Besides, the EC50 in assay [1] is 15.5 nM.

As to `CC1(C#Cc2cccc3c2COCCN3c2nc(=O)[nH]c3cccc(F)c23)COC1` [Example 93, 5-fluoro-4-(6-((3-methyloxetan-3-yl)ethynyl)-2,3-dihydrobenzo[e][1,4]oxazepin-1(5H)-yl)quinazolin-2(1H)-one], on human DGKα, the IC50 worked out at 6.6 nM. Further, the concentration for a half-maximal effect (EC50) in assay [1] was found to be 7.25 nM.

Take `O=c1nc(N(CC(F)F)c2ccnc(C#CC3CC3)c2F)c2c(F)cccc2[nH]1` [Example 122, 4-[[2-(2-cyclopropylethynyl)-3-fluoro-4-pyridyl]-(2,2-difluoroethyl)amino]-5-fluoro-1H-quinazolin-2-one]: at human DGKα, the 50% inhibitory concentration (IC50) is 7 nM. For the same compound, the EC50 in assay [1] turned out to be 3.46 nM.

Regarding `[2H]C([2H])([2H])n1c(=O)nc(N(CC(F)F)c2cc(F)cc(C#CC3(C(F)(F)F)CC3)c2)c2c(F)c(F)ccc21` [Example 41, 4-[N-(2,2-difluoroethyl)-3-fluoro-5-[2-[1-(trifluoromethyl)cyclopropyl]ethynyl]anilino]-5,6-difluoro-1-(trideuteriomethyl)quinazolin-2-one], half-maximal inhibition against human DGKα (IC50) required 9.63 nM. Besides, in assay [1], the concentration giving a half-maximal response (EC50) stood at 1 nM.

As for `[2H]C([2H])([2H])n1c(=O)nc(N2CCOCc3c(C#CC4(C(F)(F)F)CC4)cccc32)c2c(F)cccc21` [Example 100, 5-fluoro-1-(methyl-d3)-4-(6-((1-(trifluoromethyl)cyclopropyl)ethynyl)-2,3-dihydrobenzo[e][1,4]oxazepin-1(5H)-yl)quinazolin-2(1H)-one], the concentration for half-maximal inhibition (IC50) at human DGKα is 16.6 nM. Also, in assay [1], the half-maximal effective concentration (EC50) stood at 0.979 nM.

As to `CCn1c(=O)nc(N2CCCc3c(C#CC4(C(F)(F)F)CC4)cccc32)c2c(F)cccc21` [Example 20, 1-ethyl-5-fluoro-4-[5-[2-[1-(trifluoromethyl)cyclopropyl]ethynyl]-3,4-dihydro-2H-quinolin-1-yl]quinazolin-2-one], on human DGKα, the half-inhibitory concentration (IC50) worked out at 293 nM. For the same compound, the half-maximal effective concentration (EC50) in assay [1] is 0.875 nM.

In turn, `[2H]C([2H])([2H])n1c(=O)nc(N(CC(F)F)c2cc(F)cc(-c3cnc(C4CC4)cn3)c2)c2c(F)cccc21` [Example 44, 4-[3-(5-cyclopropylpyrazin-2-yl)-N-(2,2-difluoroethyl)-5-fluoro-anilino]-5-fluoro-1-(trideuteriomethyl)quinazolin-2-one] showed an IC50 on human DGKα of 11.2 nM. Further, in assay [1], the EC50 was 1.43 nM.

`Cn1c(=O)nc(N(CC(F)(F)F)c2cc(F)cc(C#CC3(C(F)(F)F)CC3)c2)c2c(F)cccc21` [Example 31, 5-fluoro-4-[3-fluoro-N-(2,2,2-trifluoroethyl)-5-[2-[1-(trifluoromethyl)cyclopropyl]ethynyl]anilino]-1-methyl-quinazolin-2-one] had a half-maximal inhibitory concentration (IC50) at human DGKα of 45.7 nM. Also, the 50% effective concentration (EC50) in assay [1] was determined as 2.89 nM.

`O=c1nc(N(CC(F)F)c2cc(F)cc(C#CC3(C(F)(F)F)CC3)c2)c2ccc(Cl)cc2[nH]1` [Example 26, 7-chloro-4-[N-(2,2-difluoroethyl)-3-fluoro-5-[2-[1-(trifluoromethyl)cyclopropyl]ethynyl]anilino]-1H-quinazolin-2-one]: the IC50 at human DGKα was determined as 314 nM. Moreover, the EC50 in assay [1] came to 1.07 nM.
